We go through 2 compounds from US11779014B2, “Adjuvants” (SYNGENTA PARTICIPATIONS AG, priority 2017, dated 2023).

Holding throughout (type): in vivo
For assay [1], the system named is Digitaria sanguinalis (DIGSA). Put plainly: Glasshouse adjuvancy test for nicosulfuron on DIGSA. On the procedure: The biological efficacies of blends of an oleyl 20 ethoxylate uncapped surfactant with an oleyl 20 ethoxylate surfactant with an n-hexyl ether cap as adjuvants for the herbicide nicosulfuron were tested in a glasshouse against three weed species sown into standard soil in pots and cultivated under controlled conditions in a glasshouse (24/18° C. day/night; 16 hours light; 65% humidity). Nicosulfuron was added to the spray tank as a standard WG (water dispersible granule) formulation. The plants were sprayed with nicosulfuron at rates of 15 or 60 grams of pesticide per hectare using a laboratory track sprayer which delivered the aqueous spray composition at a rate of 200 litres per hectare, using a flat fan nozzle (Teejet 11002VS) at 2 bar. The adjuvants were added to the spray solution at a total rate of 0.1 or 0.2% w/v in all cases and at extra lower rates for the oleyl 20EO alone and its 1:1 blend with the oleyl 20EO n-hexyl ether to show the dose response to these adjuvants. All spray solutions also contained 10% w/w of iso-propanol. The weed species and their BBCH growth stage at spraying were Chenopodium album (CHEAL; growth stage 15), Digitaria sanguinalis (DIGSA; growth stage 14), and Commelina benghalensis (COMBE; growth stage 14). Each spray test was replicated three times. The test plants were then grown in a glasshouse under controlled conditions (24/18° C. day/night; 16 hours light; 65% humidity) and watered twice a day. The efficacy of the herbicide was assessed visually and expressed as a percentage of the leaf area killed. Samples were assessed at a time period of 21 days following application. The following tables (3-8) show the effect of blends of the two surfactants at a total concentration of 0.2 and 0.1%. In each case the blends were 1:0, 3:1, 1:1, 1:3 and 0:1 w/w of oleyl 20EO:oleyl 20 EO n-hexyl ether. The biological efficacies of blends of oleyl 20 ethoxylate and oleyl 20EO ethoxylate with a benzoate cap as adjuvants for the herbicide nicosulfuron were tested in a glasshouse using the same method as for ‘Example 1’ but against just two weed species and with just 0.2% w/v total adjuvant concentration. The weed species and their BBCH growth stage at spraying HI were Chenopodium album (CHEAL; growth stage 13-15) and Digitaria sanguinalis (DIGSA; growth stage 14-22).

A further assay has as its system Setaria viridis (SETVI). Put plainly: Glasshouse adjuvancy test for pinoxaden on SETVI. The settings on record: total surfactant 0.2% w/v, 21 days. On the procedure:
Pinoxaden was added to the spray tank as a standard EC (emulsifiable concentrate) formulation. The plants were sprayed with pinoxaden at rates of 7.5 or 15 grams of pesticide per hectare using a laboratory track sprayer which delivered the aqueous spray composition at a rate of 200 litres per hectare, using a flat fan nozzle (Teejet 11002VS) at 2 bar. The spray solutions also contained the oleyl 20EO alone or in the 1:1 blends with the capped surfactants. The adjuvants were added to the spray solution at a total surfactant rate of 0.2% w/v. All spray solutions also contained 10% w/w of iso-propanol. The weed species and their BBCH growth stage at spraying were Avena fatua (AVEFA; growth stage 13) and Setaria viridis (SETVI; growth stage 13). Each spray test was replicated three times. The test plants were then grown in a glasshouse under controlled conditions (20/16° C. day/night; 16 hours light; 65% humidity) and watered twice a day. The efficacy of the herbicide was assessed visually and expressed as a percentage of the leaf area killed. Samples were assessed at a time period of 21 days following application.

Assay [2] has as its system Chenopodium album (CHEAL). The assay is described as follows: Glasshouse adjuvancy test for fomesafen (sodium salt) on CHEAL. The settings on record: total surfactant 0.2% w/v, 21 days. The protocol: Fomesafen sodium salt was added to the spray tank as a standard SL (soluble concentrate) formulation. The plants were sprayed with fomesafen (sodium salt) at rates of 100 or 200 grams of sodium fomesafen per hectare using a laboratory track sprayer which delivered the aqueous spray composition at a rate of 200 litres per hectare, using a flat fan nozzle (Teejet 11002VS) at 2 bar. The spray solutions also contained the oleyl 20EO alone or in the 1:1 blends with the capped surfactants. The adjuvants were added to the spray solution at a total surfactant rate of 0.2% w/v. All spray solutions also contained 10% w/w of iso-propanol. The weed specie and its BBCH growth stage at spraying was Chenopodium album (CHEAL; growth stage 15). Each spray test was replicated three times. The test plants were then grown in a glasshouse under controlled conditions (24/18° C. day/night; 16 hours light; 65% humidity) and watered twice a day. The efficacy of the herbicide was assessed visually and expressed as a percentage of the leaf area killed. Samples were assessed at a time period of 21 days following application.

Assay [3] concerns Digitaria sanguinalis (DIGSA). Put plainly: Glasshouse adjuvancy test for mesotrione on DIGSA. The conditions noted are these: total surfactant 0.2% w/v, 21 days. The protocol: (§1) Mesotrione was added to the spray tank as a standard SC (suspension concentrate) formulation. The plants were sprayed with mesotrione at rates of 30 or 60 grams of pesticide per hectare using a laboratory track sprayer which delivered the aqueous spray composition at a rate of 200 litres per hectare, using a flat fan nozzle (Teejet 11002VS) and an application volume of 200 litre/ha (at 2 bar). The spray solutions also contained the oleyl 20EO alone or in 1:1 blends with the capped surfactants. The adjuvants were added to the spray solution at a total surfactant rate of 0.2% w/v. All spray solutions also contained 10% w/w of iso-propanol. The weed species and their BBCH growth stage at spraying were Brachiaria platyphylla (BRAPL; growth stage 12-13), Commelina benghalensis (COMBE; growth stage 12-14) and Digitaria sanguinalis (DIGSA; growth stage 13). Each spray test was replicated three times. The test plants were then grown in a glasshouse under controlled conditions (24/18° C. day/night; 16 hours light; 65% humidity) and watered twice a day. The efficacy of the herbicide was assessed visually and expressed as a percentage of the leaf area killed. Samples were assessed at a time period of 21 days following application

Assay [4] relates to Brachiaria platyphylla (BRAPL). Put plainly: Glasshouse adjuvancy test for mesotrione on BRAPL. The settings on record: total surfactant 0.2% w/v, 21 days. The protocol: as §1
Assay [5] relates to Commelina benghalensis (COMBE). Put plainly: Glasshouse adjuvancy test for mesotrione on COMBE. The settings on record: total surfactant 0.2% w/v, 21 days. On the procedure:
as §1

Setting [6] is: nicosulfuron 15 g ai/ha, 0.1% total surfactant concentration, 21 days, Table 8.
Setting [7] is: nicosulfuron 15 g ai/ha, 0.2% total surfactant concentration, 21 days, Table 7.
Where [8] appears, read: nicosulfuron 60 g ai/ha, 0.1% total surfactant concentration, 21 days, Table 8.
The mark [9] stands for this setting: nicosulfuron 60 g ai/ha, 0.2% total surfactant concentration, 21 days, Table 7.

In the case of `CCCCCCCC/C=C\CCCCCCCCOCCOCCOCCOCCOCCOCCOCCOCCOCCOCCOCCOCCOCCOCCOCCOCCOCCOCCOCCOCCO` [Oleyl 20EO, oleyl 20 ethoxylate], the Mean control in assay [1] (dose response, nicosulfuron 15 g ai/ha, adjuvant 0.05%) is 60.0%; in assay [1] (dose response, nicosulfuron 15 g ai/ha, adjuvant 0.1%), 76.7%; in assay [1] (dose response, nicosulfuron 15 g ai/ha, adjuvant 0.2%), 83.3%; in assay [1] (dose response, nicosulfuron 60 g ai/ha, adjuvant 0.05%) it was 53.3%; in assay [1] (dose response, nicosulfuron 60 g ai/ha, adjuvant 0.1%), 60.0%; in assay [1] (dose response, nicosulfuron 60 g ai/ha, adjuvant 0.2%) it was 80.0%. Moreover, the Mean control in assay [1] (setting [6]) was determined as 76.7%; in assay [1] (setting [7]), 83.3%; in assay [1] (nicosulfuron 15 g ai/ha, 0.2% w/v total adjuvant, Example 3, growth stage 14-22), 91.3%; in assay [1] (setting [8]) it was 60%; in assay [1] (setting [9]), 80%; in assay [1] (nicosulfuron 60 g ai/ha, 0.2% w/v total adjuvant, Example 3, growth stage 14-22), 85.0%. Also, the Mean control stood at 98.0% in the assay on Setaria viridis (SETVI) (pinoxaden 7.5 g ai/ha); 98.3% in the assay on Setaria viridis (SETVI) (pinoxaden 15 g ai/ha); 68.3% in assay [2] (fomesafen (sodium salt) 100 g ai/ha); 68.3% in assay [2] (fomesafen (sodium salt) 200 g ai/ha); 68.3% in assay [3] (mesotrione 30 g ai/ha); 75.0% in assay [3] (mesotrione 60 g ai/ha). Besides, the Mean control in assay [4] (mesotrione 30 g ai/ha) came out at 56.7%; in assay [4] (mesotrione 60 g ai/ha), 71.7%; in assay [5] (mesotrione 30 g ai/ha) it was 66.7%; in assay [5] (mesotrione 60 g ai/ha) it was 76.7%.
As for Oleyl 20EO n-hexyl ether, the Mean control in assay [1] (setting [6]) came to 81.7%; in assay [1] (setting [7]) it was 73.3%; in assay [1] (setting [8]), 75%; in assay [1] (setting [9]), 81.7%.
